Assay results as given in patent US10344019B2 (priority 2010, dated 2019).
Where two headings read alike, the source gives them in different places.

Columns and labels:
Test in all cases: microbe, parasite or virus in culture
Assay type in all cases: cell-based
[1] = test system: HCV 4a Rluc cells (NS5A chimeric genotype 1b Con1 replicon with genotype 4a NS5A gene); conditions: Hepatitis C virus, read-out: 4a
Method in brief: (§1)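 Replicon cells stably carrying the listed RLuc-encoding dicistronic replicons were seeded and treated with DMSO serial dilutions of compound (10 mM stocks) diluted into culture medium. After 72 h, cells were lysed and Renilla luciferase activity measured. EC50 was derived by non-linear regression.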

[2] = test system: HCV 2a JFH-1 Rluc cells (dicistronic genotype 2a JFH-1 replicon, RLuc reporter); conditions: Hepatitis C virus, genotype 2a JFH-1 replicon, read-out: 2a JFH
Method in brief: (§2)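 Renilla luciferase HCV replicon cells: dicistronic 1b Con1, 1a H77 or 2a JFH-1 replicons, or a JFH-1 chimera carrying J6 NS5A (M31 present). Compound in DMSO serial dilutions, 72 h incubation, then lysis and luciferase read. EC50 by non-linear regression.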

[3] = test system: HCV 1b RLuc cells (dicistronic genotype 1b Con1 replicon, RLuc reporter); conditions: Hepatitis C virus, read-out: 1b (nM)
Method in brief: as §2

[4] = test system: HCV 3a RLuc cells (NS5A chimeric genotype 1b Con1 replicon with consensus genotype 3a NS5A gene); conditions: Hepatitis C virus
Method in brief: as §1

[5] = test system: HCV 1a RLuc cells (dicistronic genotype 1a H77 replicon, RLuc reporter); conditions: Hepatitis C virus, read-out: 1a
Method in brief: as §2

[6] = read-out: 3a, Table 2, genotype 3a NS5A chimeric replicon
[7] = 72 h, Table 2, genotype 1a H77 replicon, 72 hours
[8] = read-out: 3a, genotype 3a NS5A chimeric 1b Con1 replicon
[9] = genotype 1a H77 replicon, RLuc reporter
[10] = read-out: 3a, genotype 3a replicon

| SMILES | EC50 [1] | EC50 ([2]; 72 h, Table 2, 72 hours) | EC50 ([3]; 72 h) | EC50 [4, 6] | EC50 [5, 7] | EC50 ([2]; RLuc reporter) | EC50 [3] | EC50 [4, 8] | EC50 [5, 9] | EC50 [2] | EC50 [4, 10] | EC50 ([5]; genotype 1a replicon) |
| --- | --- | --- | --- | --- | --- | --- | --- | --- | --- | --- | --- | --- |
| COC(=O)NC(C(=O)N1CCC[C@H]1c1ncc(-c2ccc(-c3ccc4c(ccc5nc([C@@H]6[C@H]7CC[C@H](C7)N6C(=O)[C@@H](NC(=O)OC)C6CCOCC6)[nH]c54)c3)cc2)[nH]1)C(C)C (stereo partly drawn) [Example 67] | 1 to 990 pM | 1 to 999 pM | 0.044 nM | 1000 to 4990 pM | 1 to 999 pM |  |  |  |  |  |  |  |
| COC(=O)NC(C(=O)N1CCC[C@H]1C1=NC(c2ccc3cc(-c4ccc5c(ccc6nc([C@@H]7CCCN7C(=O)[C@@H](NC(=O)OC)C7CCOCC7)[nH]c65)c4)ccc3c2)=CC1)c1cccnc1 (stereo partly drawn) [Example 239] | 1 to 990 pM |  |  |  |  | 1 to 999 pM | 0.078 nM | 1 to 990 pM | 1 to 999 pM |  |  |  |
| COC(=O)N[C@H](C(=O)N1CCC[C@H]1c1ncc(-c2ccc(-c3ccc4c(ccc5nc([C@@H]6[C@H]7CC[C@H](C7)N6C(=O)[C@@H](NC(=O)OC)C(C)C)[nH]c54)c3)cc2Cl)[nH]1)C(C)C [Example 371] | 1 to 990 pM |  |  |  |  |  | 0.007 nM |  |  | 1 to 999 pM | > 5000 pM | 1 to 999 pM |
| COC(=O)N[C@H](C(=O)N1CCC[C@H]1c1nc2c([nH]1)-c1ccc(-c3ccc4cc(-c5cnc([C@@H]6CCCN6C(=O)[C@H](NC(=O)CC6CCOCC6)c6ccccc6)[nH]5)ccc4c3)cc1CC2)C(C)C [Example 273] | 1 to 990 pM |  |  |  |  | 1 to 999 pM | 0.042 nM | 1 to 990 pM | 1 to 999 pM |  |  |  |
| COC(=O)N[C@H](C(=O)N1[C@@H]2CC[C@@H](C2)[C@H]1c1ncc(-c2ccc3c(c2)CCc2cc(-c4cnc([C@@H]5CCCN5C(=O)[C@@H](NC(=O)OC)C(C)OC)[nH]4)ccc2-3)[nH]1)C(C)C (stereo partly drawn) [Example 85] | 1 to 990 pM | 1 to 999 pM | 0.016 nM | 1000 to 4990 pM | 1 to 999 pM |  |  |  |  |  |  |  |
| COC(=O)N[C@H](C(=O)N1[C@@H]2CC[C@@H](C2)[C@H]1c1nc2ccc3cc(C#Cc4ccc(-c5cnc([C@@H]6CCCN6C(=O)[C@H](NC(=O)OC)c6ccccc6)[nH]5)cc4)ccc3c2[nH]1)C1CCOCC1 [Example 283] | 1 to 990 pM |  |  |  |  | 1 to 999 pM | 0.007 nM | 1 to 990 pM | 1 to 999 pM |  |  |  |
| COC(=O)N[C@H](C(=O)N1CCC[C@H]1c1nc2ccc3cc(-c4ccc5c(ccc6nc([C@@H]7[C@H]8CC[C@H](C8)N7C(=O)[C@@H](NC(=O)OC)[C@@H](C)OC)[nH]c65)c4)ccc3c2[nH]1)C(C)C [Example 64] | 1 to 990 pM | 1 to 999 pM | 0.018 nM | 1 to 990 pM | 1 to 999 pM |  |  |  |  |  |  |  |
| COC(=O)NC(C(=O)N1CCC[C@H]1c1ncc(-c2ccc(-c3ccc4c(ccc5nc([C@@H]6[C@H]7CC[C@H](C7)N6C(=O)[C@@H](NC(=O)OC)C(C)C)[nH]c54)c3)cc2)[nH]1)C1CCOCC1 (stereo partly drawn) [Example 69] | 1 to 990 pM | 1 to 999 pM | 0.035 nM | 1 to 990 pM | 1 to 999 pM |  |  |  |  |  |  |  |
| COC(=O)N[C@H](C(=O)N1CCC[C@H]1c1nc2c([nH]1)-c1ccc(-c3ccc4cc(-c5cnc([C@@H]6CCCN6C(=O)[C@H](NC(=O)C6CCOCC6)c6ccccc6)[nH]5)ccc4c3)cc1CC2)C(C)C [Example 246] | 1 to 990 pM |  |  |  |  | 1 to 999 pM | 0.045 nM | 1 to 990 pM | 1 to 999 pM |  |  |  |
| COC(=O)N[C@H](C(=O)N1CCC[C@H]1c1ncc(-c2ccc3c(c2)C(F)(F)c2cc(-c4ccc5nc([C@@H]6[C@H]7CC[C@H](C7)N6C(=O)[C@H](NC(=O)OC)c6ccccc6)[nH]c5c4)ccc2-3)[nH]1)C(C)C [Example 40] | 1 to 990 pM | 1 to 999 pM | 0.005 nM | 1000 to 4990 pM | 1 to 999 pM |  |  |  |  |  |  |  |
| COC(=O)N[C@H](C(=O)N1CCC[C@H]1c1ncc(-c2ccc3c(c2)COc2c-3ccc(-c3cnc([C@@H]4CCCN4C(=O)[C@@H](NC(=O)OC)C(C)C)[nH]3)c2F)[nH]1)C(C)C [Example 308] | 1 to 990 pM |  |  |  |  |  | 0.008 nM |  |  | 1 to 999 pM | 1 to 990 pM | 1 to 999 pM |
| COC(=O)N[C@H](C(=O)N1CCC[C@H]1c1ncc(-c2ccc3c4ccc(-c5cnc([C@@H]6CCCN6C(=O)[C@@H](NC(=O)OC)C6CCOCC6)[nH]5)cc4c4ccccc4c3c2)[nH]1)C1CCOCC1 [Example 309] | 1 to 990 pM |  |  |  |  |  | 0.219 nM |  |  | 1 to 999 pM | 1 to 990 pM | 1 to 999 pM |
| COC(=O)N[C@H](C(=O)N1CCC[C@H]1c1ncc(-c2ccc(-c3ccc4c(ccc5nc([C@@H]6CCCN6C(=O)[C@@H](NC(=O)OC)C(C)C)[nH]c54)c3)c(C#CC3CC3)c2)[nH]1)C(C)C [Example 349] | 1 to 990 pM |  |  |  |  |  | 0.005 nM |  |  | 1 to 999 pM | 1 to 990 pM | 1 to 999 pM |
| COC(=O)N[C@H](C(=O)N1CCCC1c1ncc(-c2cc3c4c(c2)OCc2cc(-c5cnc([C@@H]6CCCN6C(=O)[C@@H](NC(=O)OC)C6CCC6)[nH]5)cc(c2-4)OC3)[nH]1)C1CCC1 (stereo in doubt) [Example 376] | 1 to 990 pM |  |  |  |  |  | 0.02 nM |  |  | 1 to 999 pM | 1 to 990 pM | 1 to 999 pM |
| COC(=O)N[C@H](C(=O)N1CCC[C@H]1c1ncc(-c2ccc3c(c2)C(F)(F)c2cc(-c4ccc5nc([C@@H]6CCCN6C(=O)[C@H](NC(=O)OC)c6ccccc6)[nH]c5c4)ccc2-3)[nH]1)C(C)C [Example 258] | 1 to 990 pM |  |  |  |  | 1 to 999 pM | 0.005 nM | 1 to 990 pM | 1 to 999 pM |  |  |  |
| COC(=O)N[C@H](C(=O)N1[C@@H]2CC[C@@H](C2)[C@H]1c1nc2c([nH]1)-c1ccc(-c3ccc4c(ccc5nc([C@@H]6CCCN6C(=O)[C@@H](NC(=O)OC)[C@@H](C)OC)[nH]c54)c3)cc1CC2)C(C)C [Example 292] | 1 to 990 pM |  |  |  |  |  | 0.059 nM |  |  | 1 to 999 pM | 1 to 990 pM | 1 to 999 pM |
| COC(=O)N[C@H](C(=O)N1CCC[C@H]1c1ncc(-c2ccc3c(c2)CCc2cc(-c4cnc([C@@H]5[C@H]6CC[C@H](C6)N5C(=O)[C@@H](c5ccccc5)N5CCOCC5)[nH]4)ccc2-3)[nH]1)C(C)C [Example 295] | 1 to 990 pM |  |  |  |  |  | 0.05 nM |  |  | 1 to 999 pM | 1 to 990 pM | 1000 to 44000 pM |
| COC(=O)N[C@H](C(=O)N1CCC[C@H]1c1nc2ccc3cc(-c4ccc(-c5cnc([C@@H]6CC7(CN6C(=O)[C@H](NC(=O)OC)c6ccccc6)OCCO7)[nH]5)cc4)ccc3c2[nH]1)C1CCOCC1 [Example 297] | 1 to 990 pM |  |  |  |  |  | 0.357 nM |  |  | 1 to 999 pM | 1 to 990 pM | 1 to 999 pM |
| COC(=O)N[C@@H](C(=O)N1[C@@H]2CC[C@@H](C2)[C@H]1c1ncc(-c2ccc(-c3ccc4c(ccc5nc([C@@H]6C[C@H]7C[C@H]7N6C(=O)[C@H](NC(=O)OC)c6ccccc6)[nH]c54)c3)cc2)[nH]1)c1ccccc1 [Example 334] | 1 to 990 pM |  |  |  |  |  | 0.009 nM |  |  | 1 to 999 pM | 1 to 990 pM | 1 to 999 pM |
| COC(=O)N[C@H](C(=O)N1CCC[C@H]1c1nc2ccc3cc(-c4ccc5cc(-c6cnc([C@@H]7COCCN7C(=O)[C@H](NC(=O)OC)c7ccccc7)[nH]6)ccc5c4)ccc3c2[nH]1)C(C)C [Example 216] | 1 to 990 pM |  |  |  |  | 1 to 999 pM | 0.006 nM | 1 to 990 pM | 1 to 999 pM |  |  |  |
| COC(=O)N[C@H](C(=O)N1CC2(C[C@@H]1c1nc(-c3ccc4c(c3)C(F)(F)c3cc(-c5ccc6nc([C@@H]7CCCN7C(=O)[C@H](NC(=O)OC)c7ccccc7)[nH]c6c5)ccc3-4)c[nH]1)OCCO2)C(C)C [Example 46] | 1 to 990 pM | 1 to 999 pM | 0.007 nM | 1000 to 4990 pM | 1 to 999 pM |  |  |  |  |  |  |  |
| CC#Cc1cc(-c2cnc([C@@H]3[C@H]4CC[C@H](C4)N3C(=O)[C@@H](NC(=O)OC)C(C)C)[nH]2)ccc1-c1ccc(-c2cnc([C@@H]3CCCN3C(=O)[C@@H](NC(=O)OC)C(C)C)[nH]2)cc1 [Example 329] | 1 to 990 pM |  |  |  |  |  | 0.008 nM |  |  | 1 to 999 pM | 1000 to 4990 pM | 1 to 999 pM |
| COC(=O)NC(C(=O)N1CCC[C@H]1c1ncc(-c2ccc3c(c2)C(F)(F)c2cc(-c4ccc(-c5cnc([C@@H]6CCCN6C(=O)[C@H](NC(=O)OC)c6ccccc6)[nH]5)cc4)ccc2-3)[nH]1)C1CCOCC1 (stereo partly drawn) [Example 199] | 1 to 990 pM |  |  |  |  | 1000 to 44000 pM | 0.01 nM | 1000 to 4990 pM | 1000 to 44000 pM |  |  |  |
| COC(=O)NC(C(=O)N1CCC[C@H]1c1ncc(-c2ccc3c(c2)C(F)(F)c2cc(-c4ccc5nc([C@@H]6CCCN6C(=O)[C@@H](NC(=O)OC)[C@@H](C)OC)[nH]c5c4)ccc2-3)[nH]1)C(C)C (stereo partly drawn) [Example 264] | 1 to 990 pM |  |  |  |  | 1000 to 44000 pM | 0.006 nM | 1000 to 4990 pM | 1 to 999 pM |  |  |  |
